Assay results: PubChem BioAssay (NCI)
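Assay format: 96-well plates, 48-hour exposure. At the GI50, growth is halved. TGI denotes the concentration required for complete inhibition of growth.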

Experiments:
Assay in all cases: NCI-60 cell line screen, 48 h; in the data active means GI50 below about 0.43 µM; inactive means the rest
MOLT-4 leukemia = tested on: MOLT-4 leukemia
SF-295 CNS = tested on: SF-295 CNS
CCRF-CEM leukemia = tested on: CCRF-CEM leukemia
UACC-62 melanoma = tested on: UACC-62 melanoma
OVCAR-4 ovarian = tested on: OVCAR-4 ovarian
UACC-257 melanoma = tested on: UACC-257 melanoma
OVCAR-5 ovarian = tested on: OVCAR-5 ovarian
SNB-19 CNS = tested on: SNB-19 CNS
NCI-H522 lung = tested on: NCI-H522 lung
EKVX NSCLC = tested on: EKVX NSCLC
M14 melanoma = tested on: M14 melanoma
HOP-62 NSCLC = tested on: HOP-62 NSCLC
HCT-15 colon = tested on: HCT-15 colon
NCI-H460 lung = tested on: NCI-H460 lung
MDA-MB-435 = tested on: MDA-MB-435
A549 NSCLC = tested on: A549 NSCLC
T-47D breast = tested on: T-47D breast
RPMI-8226 leukemia = tested on: RPMI-8226 leukemia
OVCAR-3 ovarian = tested on: OVCAR-3 ovarian
HOP-92 NSCLC = tested on: HOP-92 NSCLC
SNB-75 CNS = tested on: SNB-75 CNS
SF-268 CNS = tested on: SF-268 CNS
MDA-MB-231 breast = tested on: MDA-MB-231 breast
SK-MEL-28 melanoma = tested on: SK-MEL-28 melanoma
NCI/ADR-RES ovarian = tested on: NCI/ADR-RES ovarian
MALME-3M melanoma = tested on: MALME-3M melanoma
MDA-N = tested on: MDA-N
MCF7 breast = tested on: MCF7 breast
SK-MEL-5 melanoma = tested on: SK-MEL-5 melanoma
OVCAR-8 ovarian = tested on: OVCAR-8 ovarian
COLO 205 colon = tested on: COLO 205 colon
SK-OV-3 ovarian = tested on: SK-OV-3 ovarian
SN12C renal = tested on: SN12C renal
TK-10 renal = tested on: TK-10 renal
SW-620 colon = tested on: SW-620 colon
IGROV1 ovarian = tested on: IGROV1 ovarian
HCC-2998 colon = tested on: HCC-2998 colon
RXF 393 renal = tested on: RXF 393 renal
K-562 leukemia = tested on: K-562 leukemia
KM12 colon = tested on: KM12 colon
A498 renal = tested on: A498 renal
HCT-116 colon = tested on: HCT-116 colon
SR leukemia = tested on: SR leukemia
NCI-H23 lung = tested on: NCI-H23 lung
DU-145 prostate = tested on: DU-145 prostate
HL-60(TB) leukemia = tested on: HL-60(TB) leukemia
HS 578T breast = tested on: HS 578T breast
NCI-H226 lung = tested on: NCI-H226 lung
HT29 colon = tested on: HT29 colon
ACHN renal = tested on: ACHN renal
UO-31 renal = tested on: UO-31 renal
U251 CNS = tested on: U251 CNS
SF-539 CNS = tested on: SF-539 CNS
LOX IMVI melanoma = tested on: LOX IMVI melanoma
786-0 renal = tested on: 786-0 renal
PC-3 prostate = tested on: PC-3 prostate
SK-MEL-2 melanoma = tested on: SK-MEL-2 melanoma
CAKI-1 renal = tested on: CAKI-1 renal
BT-549 breast = tested on: BT-549 breast

O[C@@H]1C[C@@H]2N[C@@](O)(C[C@@H]2O)[C@H]1O
> 100 µM: TGI (MOLT-4 leukemia) | TGI (SF-295 CNS) | TGI (CCRF-CEM leukemia) | TGI (UACC-62 melanoma) | TGI (OVCAR-4 ovarian) | TGI (UACC-257 melanoma) | TGI (OVCAR-5 ovarian) | TGI (SNB-19 CNS) | TGI (NCI-H522 lung) | TGI (EKVX NSCLC) | TGI (M14 melanoma) | TGI (HOP-62 NSCLC) | TGI (HCT-15 colon) | TGI (NCI-H460 lung) | TGI (MDA-MB-435) | TGI (A549 NSCLC) | TGI (T-47D breast) | TGI (RPMI-8226 leukemia) | TGI (OVCAR-3 ovarian) | TGI (HOP-92 NSCLC) | TGI (SNB-75 CNS) | TGI (SF-268 CNS) | TGI (MDA-MB-231 breast) | TGI (SK-MEL-28 melanoma) | TGI (NCI/ADR-RES ovarian) | TGI (MALME-3M melanoma) | TGI (MDA-N) | TGI (MCF7 breast) | TGI (SK-MEL-5 melanoma) | TGI (OVCAR-8 ovarian) | TGI (COLO 205 colon) | TGI (SK-OV-3 ovarian) | TGI (SN12C renal) | TGI (TK-10 renal) | TGI (SW-620 colon) | TGI (IGROV1 ovarian) | TGI (HCC-2998 colon) | TGI (RXF 393 renal) | TGI (K-562 leukemia) | TGI (KM12 colon) | TGI (A498 renal) | TGI (HCT-116 colon) | TGI (SR leukemia) | TGI (NCI-H23 lung) | TGI (DU-145 prostate) | TGI (HL-60(TB) leukemia) | TGI (HS 578T breast) | TGI (NCI-H226 lung) | TGI (HT29 colon) | TGI (ACHN renal) | TGI (UO-31 renal) | TGI (U251 CNS) | TGI (SF-539 CNS) | TGI (LOX IMVI melanoma) | TGI (786-0 renal) | TGI (PC-3 prostate)

NC(C(=O)[O-])C(=O)[O-].NC1CCCCC1N.[Pt+4]
inactive: GI50 (MOLT-4 leukemia) 6.42 µM | GI50 (SF-295 CNS) 2.27 µM | GI50 (UACC-62 melanoma) 2.39 µM | GI50 (OVCAR-4 ovarian) 11.3 µM | GI50 (UACC-257 melanoma) > 100 µM | GI50 (OVCAR-5 ovarian) 2.64 µM | GI50 (SNB-19 CNS) 6.54 µM | GI50 (SK-MEL-2 melanoma) > 100 µM | GI50 (M14 melanoma) 20.2 µM | GI50 (HOP-62 NSCLC) 8.45 µM | GI50 (HCT-15 colon) 4.41 µM | GI50 (NCI-H460 lung) 2.29 µM | GI50 (MDA-MB-435) 4.04 µM | GI50 (A549 NSCLC) 2.63 µM | GI50 (CAKI-1 renal) 1.07 µM | GI50 (RPMI-8226 leukemia) 0.957 µM | GI50 (OVCAR-3 ovarian) 2.45 µM | GI50 (SNB-75 CNS) > 100 µM | GI50 (MDA-MB-231 breast) 31.8 µM | GI50 (SK-MEL-28 melanoma) 12.7 µM | GI50 (NCI/ADR-RES ovarian) 4.41 µM | GI50 (MDA-N) 7.47 µM | GI50 (MCF7 breast) 1.71 µM | GI50 (SK-MEL-5 melanoma) 1.84 µM | GI50 (OVCAR-8 ovarian) > 100 µM | GI50 (BT-549 breast) > 100 µM | GI50 (COLO 205 colon) 2.84 µM | GI50 (SK-OV-3 ovarian) 13.2 µM | GI50 (SN12C renal) 4.5 µM | GI50 (TK-10 renal) 3.1 µM | GI50 (SW-620 colon) 1.75 µM | GI50 (IGROV1 ovarian) 16.3 µM | GI50 (K-562 leukemia) 5.8 µM | GI50 (KM12 colon) 12.5 µM | GI50 (A498 renal) 11.6 µM | GI50 (HCT-116 colon) 2.49 µM | GI50 (NCI-H23 lung) 13.9 µM | GI50 (HL-60(TB) leukemia) 5.28 µM | GI50 (HS 578T breast) > 100 µM | GI50 (HT29 colon) 2.65 µM | GI50 (ACHN renal) 11.2 µM | GI50 (UO-31 renal) 52.7 µM | GI50 (U251 CNS) 4.63 µM | GI50 (SF-539 CNS) 5.36 µM | GI50 (LOX IMVI melanoma) 2.85 µM | GI50 (786-0 renal) 5.79 µM | GI50 (PC-3 prostate) 4.67 µM
32.5 µM: TGI (SF-295 CNS)
2.92 µM: TGI (MALME-3M melanoma)
active: GI50 (SF-268 CNS) 0.188 µM | GI50 (MALME-3M melanoma) 0.294 µM
8.61 µM: TGI (TK-10 renal)
19.2 µM: TGI (RPMI-8226 leukemia)
54.5 µM: TGI (UACC-62 melanoma)
3.99 µM: TGI (CAKI-1 renal)
14.7 µM: TGI (NCI-H460 lung)
12 µM: TGI (SK-MEL-5 melanoma)
5.49 µM: TGI (MCF7 breast)
24 µM: TGI (OVCAR-3 ovarian)
26.6 µM: TGI (HCT-116 colon)
6.71 µM: TGI (SF-268 CNS)
> 100 µM: TGI (MOLT-4 leukemia) | TGI (OVCAR-4 ovarian) | TGI (UACC-257 melanoma) | TGI (OVCAR-5 ovarian) | TGI (SNB-19 CNS) | TGI (SK-MEL-2 melanoma) | TGI (M14 melanoma) | TGI (HOP-62 NSCLC) | TGI (HCT-15 colon) | TGI (MDA-MB-435) | TGI (A549 NSCLC) | TGI (SNB-75 CNS) | TGI (MDA-MB-231 breast) | TGI (SK-MEL-28 melanoma) | TGI (NCI/ADR-RES ovarian) | TGI (MDA-N) | TGI (OVCAR-8 ovarian) | TGI (BT-549 breast) | TGI (COLO 205 colon) | TGI (SK-OV-3 ovarian) | TGI (SN12C renal) | TGI (SW-620 colon) | TGI (IGROV1 ovarian) | TGI (K-562 leukemia) | TGI (KM12 colon) | TGI (A498 renal) | TGI (NCI-H23 lung) | TGI (HL-60(TB) leukemia) | TGI (HS 578T breast) | TGI (HT29 colon) | TGI (ACHN renal) | TGI (UO-31 renal) | TGI (U251 CNS) | TGI (SF-539 CNS) | TGI (LOX IMVI melanoma) | TGI (786-0 renal) | TGI (PC-3 prostate)

COC(=O)c1c(C)cccc1CC1Cc2c(C)cccc2C1=O (stereo not given)
90.2 µM: TGI (CCRF-CEM leukemia)
64.2 µM: TGI (NCI/ADR-RES ovarian)
37.5 µM: TGI (SK-MEL-5 melanoma)
48.3 µM: TGI (COLO 205 colon)
57.8 µM: TGI (NCI-H522 lung)
79.1 µM: TGI (MOLT-4 leukemia)
99.5 µM: TGI (NCI-H23 lung)
73.7 µM: TGI (A498 renal)
72.9 µM: TGI (UACC-257 melanoma)
95.8 µM: TGI (NCI-H226 lung)
37.9 µM: TGI (SK-MEL-2 melanoma)
65.1 µM: TGI (MDA-MB-435)
45.5 µM: TGI (HL-60(TB) leukemia)
> 100 µM: TGI (SF-295 CNS) | TGI (OVCAR-4 ovarian) | TGI (OVCAR-5 ovarian) | TGI (SNB-19 CNS) | TGI (EKVX NSCLC) | TGI (M14 melanoma) | TGI (HOP-62 NSCLC) | TGI (HCT-15 colon) | TGI (NCI-H460 lung) | TGI (A549 NSCLC) | TGI (CAKI-1 renal) | TGI (T-47D breast) | TGI (OVCAR-3 ovarian) | TGI (SNB-75 CNS) | TGI (SF-268 CNS) | TGI (MDA-MB-231 breast) | TGI (SK-MEL-28 melanoma) | TGI (MALME-3M melanoma) | TGI (MDA-N) | TGI (OVCAR-8 ovarian) | TGI (BT-549 breast) | TGI (SK-OV-3 ovarian) | TGI (SN12C renal) | TGI (TK-10 renal) | TGI (SW-620 colon) | TGI (IGROV1 ovarian) | TGI (HCC-2998 colon) | TGI (RXF 393 renal) | TGI (K-562 leukemia) | TGI (HCT-116 colon) | TGI (DU-145 prostate) | TGI (HS 578T breast) | TGI (HT29 colon) | TGI (ACHN renal) | TGI (U251 CNS) | TGI (SF-539 CNS) | TGI (786-0 renal) | TGI (PC-3 prostate)
73.2 µM: TGI (KM12 colon)
33.6 µM: TGI (LOX IMVI melanoma)
70.9 µM: TGI (HOP-92 NSCLC)
89.9 µM: TGI (UACC-62 melanoma)
71 µM: TGI (UO-31 renal)
